Tested on: HO-1 promoter
Assay: HO-1 promoter luciferase reporter (pHO15luc) in HT22 cells
Assay type: cell-based, mouse
Description: Cell cultures, transfection, and glutathione (GSH) measurement. […] Transfection was performed with Lipofectamine 2000 (Invitrogen). In the reporter gene assays, firefly luciferase activity in cell lysates was measured with a luminometer (Promega). Total GSH (reduced and oxidized) was determined as described (Lee et al., Biochem. Biophys. Res. Commun. 280:286-292, 2001).
NEPPs activate HO-1 transcription through the ARE. We next studied activation of the HO-1 promoter and ARE by NEPP. In order to examine the induction of HO-1 protein by NEPP11, various concentrations of NEPP11 were added to HT22 cells for 24 h. Thereafter, cell lysates (10 μg per lane) were subjected to SDS-PAGE and probed with anti-HO-1 or anti-β-actin. […] Next, we studied transcriptional activation of the HO-1 gene by NEPP11 in HT22 cells, a differentiated neuronal cell line, transfected with pHO15luc, a luciferase reporter construct under the control of a 15-kb mouse HO-1 promoter fragment. HT22 cells were transfected with reporter cDNAs (1 μg per well), and various concentrations of NEPP11 were added to the cultures. After a 24-h incubation, cell lysates were subjected to luciferase reporter assays. […] Gong et al. (Antioxid. Redox Signal. 4:249-257, 2002) had identified two enhancer regions, E1 and E2, located upstream of the transcriptin initiation site by approximately 4 and 10 kb that contained the elements responsible for activation by 15-deoxy-Δ^12,14-PGJ2 (Gong et al., Antioxid. Redox Signal. 4:249-257, 2002). To determine the role of the E1 and E2 enhancers, we expressed a mutant promoter construct lacking both enhancer sites [pHO15lucΔ(E1+E2)]. The mutant was only minimally responsive to NEPP11 (1.8-fold induction).
Because the E1 and E2 regions also contain other enhancer elements, we tested the effects of NEPP11 (2 μM) on the expression of luciferase activity derived from these elements, including the cAMP-responsive element (CRE; p3xCREluc), AP-1 binding site (p3xAP1luc), NF-κB binding site (p3xNF-κBluc), NFAT-binding site (p3xNFATluc), ETS-binding site (p3xETSluc), and MEF2-binding site (p3xMEF2luc).

For `COC(=O)CCCCC/C=C1/C(=O)C=C[C@H]1CCCCCCc1ccc(C)cc1` [NEPP11], the “expression of HO-1 transcription (pHO15luc luciferase activity)” value (HT22 cells, 24 h, dose-dependent) was “more than five-fold”, the “induction of mutant promoter pHO15lucΔ(E1+E2)” value (HT22 cells, construct lacking E1 and E2 enhancers) was 1.8 fold and the “induction of pHO15luc reporter activity” value (NEPP11 2 μM, used for comparison) was “greater than five-fold”. The “activation of pHO15luc with co-transfection of pKeap1(C151S)” value (not depressed by wild-type pKeap1) was “significantly depressed”.

— US8466311B2, “Neuroprotective compositions and methods” (Sanford-Burnham Medical Research Institute, priority 2006, dated 2013)
